From patent US12285440B2, “APOE4 impairs myelination via altered cholesterol biosynthesis and transport in oligodendroglia” (Massachusetts Institute of Technology, priority 2021, dated 2025)

Assays:
Assay type in all cases: cell-based, human
[1] = system: APOE3 iMGLs; test: Lipid droplet induction in APOE3 iMGLs, BODIPY/IBA1 staining; settings: 20 μM, 16 hours
[2] = system: APOE3 iMGLs; test: Calcium imaging upon ATP uncaging in OA-treated APOE3 iMGLs; settings: 20 μM, 16 hours, vs untreated APOE3 iMGLs
[3] = system: APOE3 iMGLs; test: qPCR of OA-treated iMGLs; settings: 20 μM, 16 hours
[4] = system: APOE4 iMGLs; test: Cholesterol in media of APOE4 iMGLs via ELISA; settings: 16 hours treatment, drug washed off, media conditioned 24 hours; vs DMSO-treated controls
Experimental: Having induced lipid formation in APOE3 iMGLs, we next attempted to deplete APOE4 iMGLs of lipid droplets to test whether this would alleviate APOE4 phenotypes. We turned to the ACSL1 inhibitor Triacsin C (TrC). […] Since TrC has also been reported to inhibit cholesterol biosynthesis and increase microglial phagocytosis, we decided to test if the extracellular accumulation of cholesterol in APOE4 iMGLs could be reduced by TrC treatment. After 16 hours, DMSO-treated controls or TrC-treated APOE4 iMGLs were washed off the drug treatment and allowed to condition the media for an additional 24 hours. […] We reasoned that a decrease in extracellular cholesterol accumulation in APOE4 iMGLs cultures treated with TrC was likely to also relieve the suppression of neuronal activity under APOE4 iMGL conditioned media. NGN2-induced neurons from APOE3 or APOE4 iPS lines were seeded onto MEAs and allowed to mature for 3 weeks before being recorded 24 hours after exposure to conditioned media from APOE3 iMGLs, APOE4 iMGLs, or APOE4 iMGL treated with TrC. […]
[…] Measurements were made using an EnSpire plate reader (Perkin Elmer). APOE levels were similarly processed and quantified from iMGL conditioned media using Apolipoprotein E Human ELISA kit (Invitrogen; #EHAPOE).

[5] = system: APOE4 iMGLs; test: Purinergic signaling in TrC-treated APOE4 iMGLs; settings: 1 μM, 16 hours
[6] = system: NGN2-induced neurons; test: MEA recording of NGN2-induced neurons exposed to iMGL conditioned media; settings: 24 hours after exposure to conditioned media from APOE4 iMGL pre-treated with TrC
Experimental: Having induced lipid formation in APOE3 iMGLs, we next attempted to deplete APOE4 iMGLs of lipid droplets to test whether this would alleviate APOE4 phenotypes. We turned to the ACSL1 inhibitor Triacsin C (TrC). […] Since TrC has also been reported to inhibit cholesterol biosynthesis and increase microglial phagocytosis, we decided to test if the extracellular accumulation of cholesterol in APOE4 iMGLs could be reduced by TrC treatment. After 16 hours, DMSO-treated controls or TrC-treated APOE4 iMGLs were washed off the drug treatment and allowed to condition the media for an additional 24 hours. […] NGN2-induced neurons from APOE3 or APOE4 iPS lines were seeded onto MEAs and allowed to mature for 3 weeks before being recorded 24 hours after exposure to conditioned media from APOE3 iMGLs, APOE4 iMGLs, or APOE4 iMGL treated with TrC. […]
Dissociated spheroids or NGN2-induced neurons were plated as a 10 μl droplet in Poly-D-Lysine (Sigma-Aldrich) coated wells of a CytoView MEA 48-well plate (Axion BioSystems; M768-tMEA-48B). […] Spontaneous neural activity was recorded for 30 minutes at a sampling rate of 12.5 kHz and an adaptive threshold set at 5.5 times the standard deviation of baseline noise was used for spike detection. Bursts were detected at each electrode using an inter-spike interval (ISI) threshold set to at least 5 spikes with a maximum ISI of 100 ms. […]

[7] = system: APOE4 iMGLs; settings: 1 μM, 16 hours, vs DMSO-treated control cells
[8] = system: excitatory neurons generated by the rapid induction of NGN2 expression; test: MEA recording of NGN2-induced neurons treated with cholesterol
Text: (§1) Cholesterol is essential for proper neuronal physiology, and cholesterol depletion is known to impair neurotransmission. Since we detect extracellular accumulation of cholesterol in APOE4 iMGLs, we wondered what the impact of exogenous cholesterol treatment would be to these neuronal cultures. Due to the extended culture times of spheroids, we opted to conduct these studies with excitatory neurons generated by the rapid induction of NGN2 expression. […] To further dissect the physiological process that renders neurons less excitable upon treatment with exogenous cholesterol, we next assessed iPSC-derived neurons by patch-clamp electrophysiology. […] Potentiation of Kir currents is aligned with our observation in cells recorded on MEA, as strong inwardly-rectifying potassium currents are known to hyperpolarize resting membrane potentials and decrease neuronal excitability.
Dissociated spheroids or NGN2-induced neurons were plated as a 10 μl droplet in Poly-D-Lysine (Sigma-Aldrich) coated wells of a CytoView MEA 48-well plate (Axion BioSystems; M768-tMEA-48B). […] Spontaneous neural activity was recorded for 30 minutes at a sampling rate of 12.5 kHz and an adaptive threshold set at 5.5 times the standard deviation of baseline noise was used for spike detection. […]

[9] = system: dissociated spheroid cultures; test: Patch-clamp electrophysiology of dissociated spheroid neurons with exogenous cholesterol; settings: 1 mM cholesterol in external solution
Text: as §1
Whole-cell patch-clamp recordings of neurons were performed at 6 to 8 weeks after spheroid dissociation and 2D plating, or for iMGLs after 2 to 4 weeks of iMGL differentiation. […] Membrane potentials were typically kept between −50 mV to −70 mV depending on whether neurons or iMGLs were being recorded. In voltage-clamp mode, currents were recorded with voltage steps ranging from −160 mV to +80 mV. […] ATP-evoked currents were recorded by local application of 100 μM (Sigma-Aldrich; #A9187). […]

CCCCCCCC/C=C\CCCCCCCC(=O)O [OA, oleic acid]
cell size of iMGLs [1]: decrease in the cell size of iMGLs
intracellular BODIPY-positive lipid droplets ([1]; IBA1-positive cells): accumulated intracellular BODIPY-positive lipid droplets
calcium transients evoked by ATP uncaging [2]: sufficient to blunt calcium transients evoked by ATP uncaging relative to untreated APOE3 iMGLs
CD74 expression by qPCR [3]: upregulation of this gene
expression of ACSL1 [3]: significantly induced the expression of ACSL1

CCC/C=C/C/C=C/C=C/C=N/NN=O [TrC, Triacsin C]
levels of accumulated cholesterol in the media [4]: significant decrease in the levels of accumulated cholesterol in the media
purinergic signaling [5]: purinergic signaling was restored after lipid droplet depletion
neuronal bursts / neural activity on MEA [6]: increased neural activity to the level of neurons treated with APOE3 iMGL media
BODIPY-positive lipid droplets [7]: dramatically reduce BODIPY-positive lipid droplets relative to DMSO-treated control cells

CC(C)CCC[C@@H](C)[C@H]1CC[C@H]2[C@@H]3CC=C4C[C@@H](O)CC[C@]4(C)[C@H]3CC[C@]12C [cholesterol]
neuronal activity on MEA [8]: phenocopied our observation of treatment with APOE4 iMGL conditioned media
resting membrane potential (RMP) [9]: significantly hyperpolarized the resting membrane potential
I-V curve, inwardly-rectifying potassium (Kir) currents ([9]; vs non-treated neurons): greater inwardly-rectifying potassium (Kir) currents
